Source: a melting point compilation (Tetko et al.; mined from patent text by program, amines drawn as free bases though some values may be those of a salt)

Row | Structure (SMILES) | melting point
1 | Cc1ccc(-c2csc(C(=O)O)n2)cc1 | 112 to 114 °C
2 | CCCCOc1cc(/C=C(\OCC)C(=O)O)ccc1OCCc1ccc(OS(=O)(=O)CCCC)cc1 | 96 °C
3 | O=C(OCC(=O)c1ccccc1[N+](=O)[O-])c1ccccc1 | 77 to 80 °C
4 | O[C@@H]1C=CC=C(Cl)[C@@H]1O (relative stereo) | 95 to 96 °C
5 | COCc1cc(-c2nnc3c4ccccc4c(OCc4ncn(C)n4)nn23)no1 | 236 °C
6 | CC(C)(C)C(Cl)=NNc1cc(Cl)ccc1Cl | 50 to 51 °C
7 | Cc1nc(C)c(-c2cccc(OC3SCC(O)C(O)C3O)c2)s1 (stereo unspecified) | 158 to 164 °C
8 | O=C1SCC(O)=C1Cc1ccc(Cl)c(Cl)c1 | 239 to 240 °C
9 | Cc1ccc(NC(=O)c2c(Cl)cccc2Cl)c2nccc(N3CCN(C)C3=O)c12 | 262 to 264 °C
10 | CC(C)c1ccc(-c2ncc(-c3cccc(C(=O)O)c3)s2)cc1 | 237 to 239 °C
11 | CCOc1cc2c(Nc3cc(OC)c(Cl)cc3Cl)c(C#N)cnc2cc1OCC1CCN(C)CC1 | 182 to 186 °C
12 | CC1COC(Nc2ccccc2)(c2ccnc(C(=O)c3ccc(Cl)cc3)c2)O1 (stereo unspecified) | 125 to 126 °C
13 | CCOC(=O)c1cnc2c(c1O)CC(CC)CC2 (stereo unspecified) | 218 to 220 °C
14 | CC(C)(C)OC(=O)[C@@H]1CCCN1C(=O)C1CCCC1SC(=O)c1ccccc1 (stereo partly specified) | 68 to 70 °C
15 | CS(=O)(=O)c1ccc(-c2cc(C(=O)CCCO)nn2-c2ccc(Br)cc2)cc1 | 136 to 137 °C
16 | CN(O)C(=O)Nc1ccc(S(C)=O)cc1 (stereo unspecified) | 198 °C
17 | O=C(O)CCNC(=O)c1cccc(NC(=O)c2csc(NC(=O)NCc3ccccc3)n2)c1 | 157 °C
18 | CC(C)(C)OC(=O)N1CCC(C(=O)NC2=NCCCN2)CC1 | 155 to 160 °C
19 | COc1ccc(-c2[nH]c(-c3ccc([N+](=O)[O-])c(C)c3)nc2C(=O)O)cc1 | 229 to 230 °C
20 | CCn1c(C)c(C)c(=O)c(C(=O)O)c1-c1ccc(Cl)cc1 | 240 to 242 °C
21 | COc1cccc(-c2nc(-c3ccoc3)n[nH]2)c1 | 169 to 171 °C
22 | Cn1c(CO)nc2cc(Cl)cnc21 | 141 to 142 °C
23 | Cn1c(=O)cc(-c2cccc(Cl)c2)c2cc(C(O)(c3ccc(Cl)cc3)c3cnccc3Cl)ccc21 (stereo unspecified) | 178 °C
24 | Cc1ccc(S(=O)(=O)N2CC3=CC(=O)CC3C2)cc1 (stereo unspecified) | 147 to 149 °C

Row | Structure (SMILES) | melting point
25 | COc1cc(N2CCC(N3CCCN(C)CC3)CC2)ccc1Nc1ncc2ccc(-c3ccccc3N(C)S(C)(=O)=O)n2n1 | 100 to 109 °C
26 | Cc1ccc2c(c1)[nH]c(=O)n2C1CCN(C2CCN(C(=O)OC(C)(C)C)CC2)CC1 | 210 to 211 °C
27 | CCC(Oc1c(Br)cc(-c2ccc(-c3c(Cc4ccccc4)oc4ccccc34)cc2)cc1Br)C(=O)O (stereo unspecified) | 79 to 80 °C
28 | CCc1cc(C(N)=O)nn1C | 170 to 172 °C
29 | O=COCc1cc2c3ccccc3[nH]c(=O)n2n1 | 190 to 192 °C
30 | COC(=O)c1sccc1NC(=O)OC(C)C | 105 to 107 °C
31 | O=C(NCC12CC3CC(CC(C3)C1)C2)c1cccc(F)c1Cl | 149 to 151 °C
32 | CC(=O)Nc1cc(Oc2ccc3c(c2)CCN3C(=O)Nc2ccc(OC(C)(C)C(=O)O)c(C(F)(F)F)c2)ncn1 | 219 to 220 °C
33 | CCCOCCOc1ccc(-c2ccc3c(c2)C=C(C(=O)Nc2ccc(CN(C)C4CCOCC4)cc2)CCS3(=O)=O)cc1 | 195 to 197 °C
34 | CCCCCCCCCCCCCCCCCCS(=O)(=O)c1cc2ccccc2c(N)c1O | 84 to 88 °C
35 | CS(=O)(=O)N1CCC(Nc2nc(Cl)nc(Nc3cccc(C(F)(F)F)c3)n2)CC1 | 220 to 222 °C
36 | CC(=O)SCC(Cc1ccccc1C)C(=O)O (stereo unspecified) | 63 to 70 °C
37 | O=C1OC(=O)c2c(Cl)ccc(Cl)c21 | 187 to 190 °C
38 | O=C(O)COc1ccc(SCc2cc(-c3ccc(Cl)cc3)no2)c2c1CCC2 | 92 to 94 °C
39 | C[C@H](N=C(C(=O)O)C(C)(C)C)c1ccccc1 | 135 to 136 °C
40 | N#Cc1ccc(-c2ccc(S(=O)(=O)N(CCO)CCO)cc2)[nH]c1=O | 226 to 228 °C
41 | C=CCn1cc(-c2ccccc2)c(=O)c(-c2ccccc2)c1 | 174 °C
42 | COC(=O)c1scc(Br)c1N | 58 to 60 °C
43 | CCn1cc(C(=O)O)c(=O)c2cc(F)c(N3CC(C)(N)C3)c(F)c21 | 293 to 296 °C
44 | COc1cn(-c2ccc(-c3c(C)noc3C)cc2F)nc(-c2ccnn2-c2ccccc2)c1=O | 200 to 202 °C
45 | CC(=O)c1ccc(OCCN2CCN(c3cc(Cl)nnc3Cl)CC2)cc1 | 115 to 117 °C
46 | CN1CCN(c2ccccc2C=C2CCN(c3ccccc3)C2=O)CC1 | 104 to 106 °C
47 | COc1ccc(C(C)CN2C=CC=C3C2=Nc2cc(OC)ccc2S(=O)(=O)N3C)cc1 (stereo unspecified) | 128 to 131 °C
48 | N#Cc1cnn2c1N(C(=O)CCl)CC=C2c1cccc(C(F)(F)F)c1 | 179 to 181 °C

Row | Structure (SMILES) | melting point
49 | COC(=O)c1c(-c2cc(OC)c(OC)c(OC)c2)c2cc(OC)c(OCc3cccs3)cc2c(=O)n1-c1ccc(N)cc1 | 205 to 206 °C
50 | CCCCCCCCCCCCOC(=O)CS(=O)(=O)Nc1c(C(C)C)cccc1C(C)C | 58 to 59 °C
51 | NC(=O)c1ncccc1OCCNCc1ccccc1 | 110 to 112 °C
52 | CCCCN(CCCC)c1ccc(C=Cc2ccc(C(C#N)=c3ccc(=C(C#N)C#N)cc3)s2)c(OC)c1 | 211 to 214 °C
53 | CC#CC1Cc2ccc(C(=O)CCC(=O)N3CCC(c4ccc(Cl)cc4)CC3)cc2CCN1 (stereo unspecified) | 132 to 134 °C
54 | FC1(F)Oc2cccc(-c3n[nH]cc3I)c2O1 | 142 °C
55 | NS(=O)(=O)Cc1ccc2oc([N+](=O)[O-])c(-c3ccccc3)c2c1 | 203 to 205 °C
56 | CC(=O)N1CCN(CCOC2c3ccccc3C(=O)N2c2ccc3ccc(Cl)nc3n2)CC1 (stereo unspecified) | 172 °C
57 | O=c1cc2c(nn1Cc1ccc(Cl)cc1)-c1ccccc1S(=O)CC2 (stereo unspecified) | 207 to 209 °C
58 | CCCCCCCCCc1ccc(C(=O)CCCCC(=O)O)cc1 | 29 to 31 °C
59 | CS(=O)(=O)c1ccc(Oc2cc(OCC3CCOCC3)c3[nH]c(C4=NCC(CCO)S4)cc3c2)cc1 (stereo unspecified) | 104 to 105 °C
60 | N#Cc1ccc(C(=O)CNc2ccc(Br)cc2)cc1 | 154 to 157 °C
61 | COc1cccc(OC)c1C=CC(=O)c1ccccc1 | 54.9 to 55.8 °C
62 | O=c1c2ccccc2oc2cccnc12 | 184 to 185 °C
63 | O=C(CCCCCNC(=O)[C@H](Cc1c[nH]c2ccccc12)NC(=O)Cc1ccc2ccccc2c1)NO | 112 to 114 °C
64 | Cc1cccc(C(=O)NCN2CCN(c3ccccn3)CC2)c1 | 141 to 143 °C
65 | O=S(=O)(Nc1cc(O)ccc1Oc1ccccc1)C(F)(F)F | 97 to 99 °C
66 | CNC(=O)c1cc(C(=O)O)c2cc(Cc3ccc(F)cc3)cnc2c1O | 203 to 205 °C
67 | O=C(O)/C=C/c1ccc(-c2nc3c(=O)n(Cc4ccccc4)c(=O)n(Cc4ccccc4)c3[nH]2)cc1 | > 300 °C
68 | CCCCn1c(=O)c2nc(-c3ccc(/C=C/C(=O)O)cc3)[nH]c2n(CCCC)c1=O | 350 to 355 °C
69 | N#Cc1ccc(NC(=O)NC(=O)c2ccccc2F)c(Cl)c1Cl | 298 to 300 °C
70 | COC(=O)Cc1nsc(NC(=O)c2ccccc2)n1 | 143 °C
71 | CCOC(=O)/C=C/c1ccc(OCCOC)cc1OCc1nc(-c2ccccc2)oc1C | 109 to 110 °C
